Experimental data from ChEMBL document CHEMBL4804284.

Experiments:
Design in all cases: scale not given: the % may be the effect or the level left
[1] = target: Serine/threonine-protein kinase Sgk3 (Homo sapiens) (UniProt Q96BR1); test: Inhibition of DNA-tagged human SGK3 assessed as percent of control at 50000 nM by qPCR analysis relative to control
[2] = target: Non-receptor tyrosine-protein kinase TYK2 (Homo sapiens) (UniProt P29597); test: Inhibition of DNA-tagged human TYK2 JH2 pseudokinase domain assessed as percent of control at 50000 nM by qPCR analysis relative to control
[3] = target: LIM domain kinase 2 (Homo sapiens) (UniProt P53671); test: Inhibition of DNA-tagged human LIMK2 assessed as percent of control at 50000 nM by qPCR analysis relative to control
[4] = target: AP2-associated protein kinase 1 (Homo sapiens) (UniProt Q2M2I8); test: Inhibition of DNA-tagged human AAK1 assessed as percent of control at 50000 nM by qPCR analysis relative to control
[5] = system: Epidermal growth factor receptor (Homo sapiens), P00533 [UNDEFINED MUTATION]; test: Inhibition of DNA-tagged human EGFR E746-A750del mutant assessed as percent of control at 50000 nM by qPCR analysis relative to control
[6] = target: Serine/threonine-protein kinase 3 (Homo sapiens) (UniProt Q13188); test: Inhibition of DNA-tagged human MST2 assessed as percent of control at 50000 nM by qPCR analysis relative to control
Sequence of Serine/threonine-protein kinase 3 (Homo sapiens) (Q13188 whole entry): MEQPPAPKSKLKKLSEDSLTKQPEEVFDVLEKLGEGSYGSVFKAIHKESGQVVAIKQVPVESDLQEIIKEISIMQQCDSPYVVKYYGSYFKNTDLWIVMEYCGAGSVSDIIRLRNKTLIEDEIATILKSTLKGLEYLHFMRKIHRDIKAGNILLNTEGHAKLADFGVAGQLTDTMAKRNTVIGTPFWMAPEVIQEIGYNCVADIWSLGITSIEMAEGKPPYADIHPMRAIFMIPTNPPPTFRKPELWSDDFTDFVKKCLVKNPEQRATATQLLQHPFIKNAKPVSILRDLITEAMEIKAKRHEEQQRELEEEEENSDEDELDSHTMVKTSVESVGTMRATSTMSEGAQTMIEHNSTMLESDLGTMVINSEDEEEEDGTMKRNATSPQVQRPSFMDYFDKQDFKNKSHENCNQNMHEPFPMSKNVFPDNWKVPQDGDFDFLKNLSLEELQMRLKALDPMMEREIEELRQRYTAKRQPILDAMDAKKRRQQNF

[7] = target: Atypical kinase COQ8A, mitochondrial (Homo sapiens) (UniProt Q8NI60); test: Inhibition of DNA-tagged human ADCK3 assessed as percent of control at 50000 nM by qPCR analysis relative to control
Sequence of Atypical kinase COQ8A, mitochondrial (Homo sapiens) (Q8NI60 163-647 limits assumed): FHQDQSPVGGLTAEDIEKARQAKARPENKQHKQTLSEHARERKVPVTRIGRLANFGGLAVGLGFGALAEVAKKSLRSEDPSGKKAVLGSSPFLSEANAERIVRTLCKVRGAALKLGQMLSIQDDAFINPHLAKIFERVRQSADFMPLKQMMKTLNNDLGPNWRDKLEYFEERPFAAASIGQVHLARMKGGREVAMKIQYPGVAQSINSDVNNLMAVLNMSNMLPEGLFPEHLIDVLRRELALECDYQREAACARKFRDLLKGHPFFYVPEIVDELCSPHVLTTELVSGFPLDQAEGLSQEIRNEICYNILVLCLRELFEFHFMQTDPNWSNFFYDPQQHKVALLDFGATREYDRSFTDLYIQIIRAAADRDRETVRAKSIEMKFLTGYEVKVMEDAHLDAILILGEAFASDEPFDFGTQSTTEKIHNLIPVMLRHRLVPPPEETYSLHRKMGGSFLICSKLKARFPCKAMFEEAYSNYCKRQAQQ

[8] = system: Serine/threonine-protein kinase B-raf (Homo sapiens), P15056 [V600E]; test: Inhibition of DNA-tagged human BRAF V600E mutant assessed as percent of control at 50000 nM by qPCR analysis relative to control
Sequence of Serine/threonine-protein kinase B-raf (Homo sapiens), P15056 [V600E] (P15056 whole entry V600E): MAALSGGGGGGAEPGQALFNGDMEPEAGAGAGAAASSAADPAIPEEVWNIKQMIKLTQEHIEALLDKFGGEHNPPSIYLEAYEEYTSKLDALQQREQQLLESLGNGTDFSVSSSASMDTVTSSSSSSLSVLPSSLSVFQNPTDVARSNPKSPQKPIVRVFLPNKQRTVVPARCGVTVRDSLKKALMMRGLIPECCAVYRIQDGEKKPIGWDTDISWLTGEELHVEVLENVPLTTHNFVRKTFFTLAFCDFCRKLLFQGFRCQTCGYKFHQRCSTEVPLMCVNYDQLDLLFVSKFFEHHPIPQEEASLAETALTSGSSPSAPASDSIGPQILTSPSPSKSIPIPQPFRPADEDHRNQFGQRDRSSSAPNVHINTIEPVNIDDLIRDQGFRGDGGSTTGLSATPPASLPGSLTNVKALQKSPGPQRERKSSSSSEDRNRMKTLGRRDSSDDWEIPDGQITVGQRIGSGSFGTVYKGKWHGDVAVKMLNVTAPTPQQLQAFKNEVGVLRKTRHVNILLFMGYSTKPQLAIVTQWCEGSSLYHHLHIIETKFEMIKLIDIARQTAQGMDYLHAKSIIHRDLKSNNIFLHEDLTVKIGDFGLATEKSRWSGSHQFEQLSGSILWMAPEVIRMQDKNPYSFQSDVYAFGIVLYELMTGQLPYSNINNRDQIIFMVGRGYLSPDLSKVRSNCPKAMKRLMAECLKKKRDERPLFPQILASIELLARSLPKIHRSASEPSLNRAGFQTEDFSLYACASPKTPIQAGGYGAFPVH

[9] = system: Receptor-type tyrosine-protein kinase FLT3 (Homo sapiens), P36888 [D835H]; test: Inhibition of DNA-tagged human FLT3 D835H mutant assessed as percent of control at 50000 nM by qPCR analysis relative to control
[10] = target: CDK4/Cyclin D3 (Homo sapiens) (UniProt P11802+P30281); test: Inhibition of DNA-tagged human CDK4/cyclin D3 assessed as percent of control at 50000 nM by qPCR analysis relative to control; type: protein-complex assay
[11] = target: Tyrosine-protein kinase Mer (Homo sapiens) (UniProt Q12866); test: Inhibition of DNA-tagged human MERTK assessed as percent of control at 50000 nM by qPCR analysis relative to control
[12] = target: Serine/threonine-protein kinase 4 (Homo sapiens) (UniProt Q13043); test: Inhibition of DNA-tagged human MST1 assessed as percent of control at 50000 nM by qPCR analysis relative to control
[13] = target: Serine/threonine-protein kinase MRCK alpha (Homo sapiens) (UniProt Q5VT25); test: Inhibition of DNA-tagged human MRCKA assessed as percent of control at 50000 nM by qPCR analysis relative to control
[14] = target: Microtubule-associated serine/threonine-protein kinase 1 (Homo sapiens) (UniProt Q9Y2H9); test: Inhibition of DNA-tagged human MAST1 assessed as percent of control at 50000 nM by qPCR analysis relative to control
[15] = target: Glycogen synthase kinase-3 beta (Homo sapiens) (UniProt P49841); test: Inhibition of DNA-tagged human GSK3B assessed as percent of control at 50000 nM by qPCR analysis relative to control
Sequence of Glycogen synthase kinase-3 beta (Homo sapiens) (P49841 whole entry, looked up): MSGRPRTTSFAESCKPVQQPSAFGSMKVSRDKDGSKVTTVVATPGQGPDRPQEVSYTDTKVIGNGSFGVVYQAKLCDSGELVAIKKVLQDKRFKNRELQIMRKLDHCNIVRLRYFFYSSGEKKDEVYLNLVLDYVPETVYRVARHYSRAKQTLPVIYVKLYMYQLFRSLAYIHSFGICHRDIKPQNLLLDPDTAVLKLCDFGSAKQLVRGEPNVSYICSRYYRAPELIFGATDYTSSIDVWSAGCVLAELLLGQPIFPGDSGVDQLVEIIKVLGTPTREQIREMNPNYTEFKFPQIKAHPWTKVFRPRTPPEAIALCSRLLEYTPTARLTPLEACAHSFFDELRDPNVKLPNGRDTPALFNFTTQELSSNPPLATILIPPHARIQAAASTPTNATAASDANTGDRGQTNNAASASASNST

[16] = target: Serine/threonine-protein kinase N2 (Homo sapiens) (UniProt Q16513); test: Inhibition of DNA-tagged human PKN2 assessed as percent of control at 50000 nM by qPCR analysis relative to control
Sequence of Serine/threonine-protein kinase N2 (Homo sapiens) (Q16513 whole entry, looked up): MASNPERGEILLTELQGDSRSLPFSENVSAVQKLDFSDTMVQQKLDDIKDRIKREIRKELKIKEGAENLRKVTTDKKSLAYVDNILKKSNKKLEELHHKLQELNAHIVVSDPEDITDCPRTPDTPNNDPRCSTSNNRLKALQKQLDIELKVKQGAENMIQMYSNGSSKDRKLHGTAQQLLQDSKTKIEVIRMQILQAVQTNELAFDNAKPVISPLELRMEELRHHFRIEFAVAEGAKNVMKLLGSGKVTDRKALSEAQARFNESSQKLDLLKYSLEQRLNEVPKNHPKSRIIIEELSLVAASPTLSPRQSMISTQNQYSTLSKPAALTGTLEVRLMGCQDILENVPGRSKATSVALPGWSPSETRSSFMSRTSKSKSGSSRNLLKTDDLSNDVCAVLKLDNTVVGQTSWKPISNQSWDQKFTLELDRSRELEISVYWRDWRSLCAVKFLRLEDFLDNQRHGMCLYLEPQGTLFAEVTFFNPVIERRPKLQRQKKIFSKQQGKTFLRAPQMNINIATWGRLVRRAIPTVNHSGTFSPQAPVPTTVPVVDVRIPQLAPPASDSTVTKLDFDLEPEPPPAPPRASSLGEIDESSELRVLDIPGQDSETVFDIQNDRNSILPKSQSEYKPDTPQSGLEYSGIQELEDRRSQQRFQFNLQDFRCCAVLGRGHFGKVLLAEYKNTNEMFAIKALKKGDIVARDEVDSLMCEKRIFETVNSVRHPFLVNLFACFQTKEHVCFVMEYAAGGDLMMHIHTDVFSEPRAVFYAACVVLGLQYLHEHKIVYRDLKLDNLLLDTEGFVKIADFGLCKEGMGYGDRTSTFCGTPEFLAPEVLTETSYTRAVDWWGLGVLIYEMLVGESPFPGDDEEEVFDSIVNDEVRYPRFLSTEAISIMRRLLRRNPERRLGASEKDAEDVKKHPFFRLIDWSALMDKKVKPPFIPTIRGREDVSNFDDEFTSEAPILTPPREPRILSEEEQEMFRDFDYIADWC

[17] = target: Serine/threonine-protein kinase 24 (Homo sapiens) (UniProt Q9Y6E0); test: Inhibition of DNA-tagged human MST3 assessed as percent of control at 50000 nM by qPCR analysis relative to control
[18] = target: Serine/threonine-protein kinase ULK1 (Homo sapiens) (UniProt O75385); test: Inhibition of DNA-tagged human ULK1 assessed as percent of control at 50000 nM by qPCR analysis relative to control
[19] = target: Ribosomal protein S6 kinase alpha-1 (Homo sapiens) (UniProt Q15418); test: Inhibition of DNA-tagged human C-terminal RSK1 kinase domain 2 assessed as percent of control at 50000 nM by qPCR analysis relative to control
[20] = system: Mast/stem cell growth factor receptor Kit (Homo sapiens), P10721 [V559D,T670I]; test: Inhibition of DNA-tagged human KIT V559D/T670I double mutant assessed as percent of control at 50000 nM by qPCR analysis relative to control
[21] = target: cAMP-dependent protein kinase catalytic subunit PRKX (Homo sapiens) (UniProt P51817); test: Inhibition of DNA-tagged human PRKX assessed as percent of control at 50000 nM by qPCR analysis relative to control
[22] = system: Epidermal growth factor receptor (Homo sapiens), P00533 [UNDEFINED MUTATION]; test: Inhibition of DNA-tagged human EGFR L747-S752del/P753S double mutant assessed as percent of control at 50000 nM by qPCR analysis relative to control
[23] = target: Serine/threonine-protein kinase Nek1 (Homo sapiens) (UniProt Q96PY6); test: Inhibition of DNA-tagged human NEK1 assessed as percent of control at 50000 nM by qPCR analysis relative to control
[24] = target: Rho-associated protein kinase 1 (Homo sapiens) (UniProt Q13464); test: Inhibition of DNA-tagged human ROCK1 assessed as percent of control at 50000 nM by qPCR analysis relative to control
[25] = target: Mitogen-activated protein kinase kinase kinase 12 (Homo sapiens) (UniProt Q12852); test: Inhibition of DNA-tagged human DLK assessed as percent of control at 50000 nM by qPCR analysis relative to control
[26] = target: Tyrosine-protein kinase FRK (Homo sapiens) (UniProt P42685); test: Inhibition of DNA-tagged human FRK assessed as percent of control at 50000 nM by qPCR analysis relative to control
Sequence of Tyrosine-protein kinase FRK (Homo sapiens) (P42685 whole entry): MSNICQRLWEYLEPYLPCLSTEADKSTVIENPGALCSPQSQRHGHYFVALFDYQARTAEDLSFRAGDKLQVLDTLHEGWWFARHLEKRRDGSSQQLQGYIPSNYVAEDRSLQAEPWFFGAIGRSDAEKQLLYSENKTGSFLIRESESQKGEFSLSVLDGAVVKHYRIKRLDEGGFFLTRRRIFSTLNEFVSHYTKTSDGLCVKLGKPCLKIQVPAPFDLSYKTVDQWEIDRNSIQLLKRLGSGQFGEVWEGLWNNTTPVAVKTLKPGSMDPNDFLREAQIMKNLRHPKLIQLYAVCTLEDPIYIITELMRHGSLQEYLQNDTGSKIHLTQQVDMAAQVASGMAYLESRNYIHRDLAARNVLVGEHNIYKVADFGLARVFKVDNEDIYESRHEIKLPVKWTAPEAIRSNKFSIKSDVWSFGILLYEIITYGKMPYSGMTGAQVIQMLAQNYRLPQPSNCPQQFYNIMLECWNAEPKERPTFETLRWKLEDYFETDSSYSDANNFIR

[27] = system: Epidermal growth factor receptor (Homo sapiens), P00533 [L861Q]; test: Inhibition of DNA-tagged human EGFR L861Q mutant assessed as percent of control at 50000 nM by qPCR analysis relative to control
[28] = target: Hormonally up-regulated neu tumor-associated kinase (Homo sapiens) (UniProt P57058); test: Inhibition of DNA-tagged human HUNK assessed as percent of control at 50000 nM by qPCR analysis relative to control
Sequence of Hormonally up-regulated neu tumor-associated kinase (Homo sapiens) (P57058 whole entry, canonical isoform): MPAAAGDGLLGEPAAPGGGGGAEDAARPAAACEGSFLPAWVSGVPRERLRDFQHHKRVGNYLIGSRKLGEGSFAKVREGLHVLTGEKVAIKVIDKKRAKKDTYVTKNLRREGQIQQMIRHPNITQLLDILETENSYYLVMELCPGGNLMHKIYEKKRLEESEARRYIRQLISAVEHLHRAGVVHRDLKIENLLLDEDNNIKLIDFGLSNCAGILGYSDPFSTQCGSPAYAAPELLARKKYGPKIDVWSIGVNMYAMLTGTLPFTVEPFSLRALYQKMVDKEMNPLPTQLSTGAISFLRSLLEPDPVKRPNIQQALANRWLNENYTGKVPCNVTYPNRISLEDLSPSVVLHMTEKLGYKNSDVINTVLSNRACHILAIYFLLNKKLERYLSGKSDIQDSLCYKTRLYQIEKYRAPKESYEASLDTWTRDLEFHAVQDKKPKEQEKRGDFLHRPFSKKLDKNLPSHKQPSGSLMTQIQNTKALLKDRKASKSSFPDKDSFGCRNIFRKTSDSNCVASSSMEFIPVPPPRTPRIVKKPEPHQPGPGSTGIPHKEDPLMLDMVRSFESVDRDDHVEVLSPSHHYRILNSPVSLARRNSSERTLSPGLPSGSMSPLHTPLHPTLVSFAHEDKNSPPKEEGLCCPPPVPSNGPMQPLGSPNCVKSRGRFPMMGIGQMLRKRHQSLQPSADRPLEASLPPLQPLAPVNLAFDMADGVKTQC

[29] = target: Phosphatidylinositol 4,5-bisphosphate 3-kinase catalytic subunit gamma isoform (Homo sapiens) (UniProt P48736); test: Inhibition of DNA-tagged human PIK3CG assessed as percent of control at 50000 nM by qPCR analysis relative to control

Sequence of Serine/threonine-protein kinase Sgk3 (Homo sapiens) (Q96BR1 whole entry, the tested form may be a part): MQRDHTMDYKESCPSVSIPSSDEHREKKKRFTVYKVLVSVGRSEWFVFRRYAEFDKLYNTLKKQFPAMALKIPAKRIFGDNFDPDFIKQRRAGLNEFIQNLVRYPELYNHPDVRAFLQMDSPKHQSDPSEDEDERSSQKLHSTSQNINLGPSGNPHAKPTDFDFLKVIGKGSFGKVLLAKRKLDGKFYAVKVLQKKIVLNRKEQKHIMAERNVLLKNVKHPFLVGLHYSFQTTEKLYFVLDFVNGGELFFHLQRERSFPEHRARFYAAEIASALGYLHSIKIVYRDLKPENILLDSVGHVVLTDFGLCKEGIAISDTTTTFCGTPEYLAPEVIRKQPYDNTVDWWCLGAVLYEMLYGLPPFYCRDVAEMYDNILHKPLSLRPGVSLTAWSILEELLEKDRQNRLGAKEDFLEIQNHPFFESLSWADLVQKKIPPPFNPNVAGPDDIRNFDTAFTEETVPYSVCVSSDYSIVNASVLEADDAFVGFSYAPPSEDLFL

## CN1C(=O)/C(=C2/C(=O)Nc3ccccc32)c2ccccc21
[1]
  Activity: 68%
[2]
  Activity: 88%
[3]
  Activity: 100%
[4]
  Activity: 91%
[5]
  Activity: 83%
[6]
  Activity: 99%
[7]
  Activity: 74%
[8]
  Activity: 72%
[9]
  Activity: 100%
[10]
  Activity: 100%
[11]
  Activity: 100%
[12]
  Activity: 95%
[13]
  Activity: 92%
[14]
  Activity: 85%
[15]
  Activity: 90%
[16]
  Activity: 99%
[17]
  Activity: 88%
[18]
  Activity: 68%
[19]
  Activity: 84%
[20]
  Activity: 93%
[21]
  Activity: 100%
[22]
  Activity: 64%
[23]
  Activity: 92%
[24]
  Activity: 87%
[25]
  Activity: 100%
[26]
  Activity: 96%
[27]
  Activity: 83%
[28]
  Activity: 98%
[29]
  Activity: 100%
